Drawing on PubChem BioAssay (NCI), this text covers TGI for nine compounds.

Among the test systems are EKVX NSCLC; NCI-H23 lung; 786-0 renal; NCI-H226 lung; SW-620 colon; CAKI-1 renal; KM12 colon; ACHN renal; LOX IMVI melanoma; A498 renal; K-562 leukemia; OVCAR-5 ovarian; UO-31 renal; HT29 colon; HCT-15 colon; UACC-257 melanoma.
Common to all, as to assay: NCI tumour cell line growth inhibition, 48 h

Molecules are shown by their SMILES.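 These data come from cells grown in 96-well plates and exposed to compound for 48 hours at five concentrations. TGI marks complete inhibition of growth.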

In the case of `CCCn1c(SCC)c2ccccc2c1-c1nc(F)nc(F)n1`, the TGI in the assay on EKVX NSCLC, in the assay on NCI-H23 lung, with 786-0 renal, in the assay on NCI-H226 lung, with SW-620 colon and with CAKI-1 renal was over 100 µM throughout. The TGI with KM12 colon, in the assay with ACHN renal, in the assay on LOX IMVI melanoma, with A498 renal, in the assay with K-562 leukemia and with OVCAR-5 ovarian was over 100 µM each time. Further, the TGI in the assay with UO-31 renal, with HT29 colon and in the assay with HCT-15 colon was over 100 µM each time.

Take `O=c1[nH]c(Nc2cccc(C(F)(F)F)c2)nc2nc[nH]c12`: the TGI with EKVX NSCLC, in the assay with 786-0 renal, in the assay on NCI-H226 lung, in the assay with SW-620 colon, in the assay with CAKI-1 renal and in the assay on KM12 colon was over 100 µM throughout. The TGI in the assay on ACHN renal, in the assay with UACC-257 melanoma, in the assay on LOX IMVI melanoma, in the assay on K-562 leukemia, with OVCAR-5 ovarian and in the assay with HT29 colon was over 100 µM throughout. Also, in the assay on HCT-15 colon, the TGI is over 100 µM.

Consider `CCCC/C=C/C1Cc2ccccc2CN1S(=O)(=O)c1ccc(C)cc1` (stereo unspecified), for which the TGI in the assay on EKVX NSCLC is over 100 µM; with NCI-H23 lung, 16.4 µM; with 786-0 renal, 25.1 µM; in the assay with NCI-H226 lung, 25.8 µM; with SW-620 colon, 24.1 µM; in the assay on KM12 colon, 22.1 µM. The TGI is 22.5 µM in the assay on ACHN renal; 17.9 µM with UACC-257 melanoma; 22.3 µM in the assay on LOX IMVI melanoma; over 100 µM in the assay on K-562 leukemia; 82.3 µM in the assay on OVCAR-5 ovarian; 18.7 µM with UO-31 renal. For the same compound, the TGI in the assay on HT29 colon amounted to 21.7 µM; with HCT-15 colon, 49.2 µM.

For `CC(C)(C)NN=C1C(C)(C)C(=NNC(C)(C)C)C1(C)C`, the TGI in the assay on NCI-H23 lung, in the assay on 786-0 renal, in the assay on NCI-H226 lung, in the assay on SW-620 colon, in the assay on CAKI-1 renal and in the assay on KM12 colon was over 100 µM throughout. The TGI with ACHN renal, in the assay on UACC-257 melanoma, with LOX IMVI melanoma, with K-562 leukemia, with OVCAR-5 ovarian and in the assay on UO-31 renal was over 100 µM each time. In addition, the TGI in the assay on HT29 colon and in the assay on HCT-15 colon was over 100 µM each time.

With `COc1ccc2nc3cccc([N+](=O)[O-])c3c(NCCO)c2c1`, the TGI was determined as 0.0648 µM with EKVX NSCLC; 0.0624 µM in the assay with NCI-H23 lung; 0.0649 µM in the assay on 786-0 renal; 0.176 µM with NCI-H226 lung; 0.00862 µM in the assay with SW-620 colon; 0.0706 µM with CAKI-1 renal. The TGI was found to be 0.149 µM with KM12 colon; 0.0504 µM in the assay with ACHN renal; 0.0813 µM in the assay with UACC-257 melanoma; 0.00494 µM in the assay on LOX IMVI melanoma; 0.117 µM with A498 renal; 0.0181 µM in the assay with K-562 leukemia. Also, the TGI was determined as 0.0698 µM in the assay on OVCAR-5 ovarian, 0.0504 µM with UO-31 renal, 0.125 µM with HT29 colon and 0.0481 µM in the assay with HCT-15 colon.

`COC(=O)C(CCCC1(c2ccccc2)OCCO1)C(C)=O` (stereo unspecified): the TGI in the assay on EKVX NSCLC, in the assay with NCI-H23 lung, with 786-0 renal, with NCI-H226 lung, in the assay on SW-620 colon and in the assay with KM12 colon was over 100 µM each time. The TGI with ACHN renal, with UACC-257 melanoma, with LOX IMVI melanoma, in the assay on A498 renal, with K-562 leukemia and with OVCAR-5 ovarian was over 100 µM each time. Besides, the TGI in the assay on UO-31 renal, in the assay with HT29 colon and in the assay on HCT-15 colon was over 100 µM in each case.

Regarding `CC1(C)CC[C@]2(C)CC=C3[C@]4(C)CC[C@H]5C(C)(C)C(=O)CC[C@]5(C)[C@H]4CC[C@@]3(C)[C@H]2C1`, the TGI in the assay on EKVX NSCLC, in the assay on NCI-H23 lung, in the assay with 786-0 renal, in the assay on NCI-H226 lung, in the assay with SW-620 colon and in the assay on CAKI-1 renal was over 100 µM throughout. Further, the TGI with KM12 colon, with ACHN renal, in the assay on UACC-257 melanoma, in the assay with LOX IMVI melanoma, with A498 renal and in the assay with OVCAR-5 ovarian was over 100 µM throughout. The TGI in the assay on UO-31 renal, in the assay with HT29 colon and in the assay with HCT-15 colon was over 100 µM each time.

On to `CCCCc1c2c(nc3c1CCCC3O)/C(=C/c1ccccc1)CCC2` (stereo unspecified), for which the TGI was 97.4 µM in the assay with EKVX NSCLC; over 100 µM in the assay on NCI-H23 lung; 57 µM in the assay on 786-0 renal; 68 µM with NCI-H226 lung; 64.2 µM in the assay on SW-620 colon; 36.8 µM in the assay with KM12 colon. The TGI in the assay with ACHN renal was over 100 µM; in the assay on UACC-257 melanoma, 96.6 µM; in the assay on LOX IMVI melanoma it was 34.5 µM; in the assay on A498 renal, over 100 µM; in the assay on K-562 leukemia, 40.5 µM; in the assay with OVCAR-5 ovarian, over 100 µM. Also, the TGI in the assay on UO-31 renal was over 100 µM; in the assay with HT29 colon it was 46.1 µM; in the assay with HCT-15 colon, 61.6 µM.

As to `O=C(/C=C/c1ccc(Cl)cc1)Oc1ccc(/C=C2\CCCCC2=O)cc1`, the TGI in the assay on EKVX NSCLC, in the assay with NCI-H23 lung, in the assay with 786-0 renal, in the assay with SW-620 colon, in the assay on CAKI-1 renal and in the assay with KM12 colon was over 100 µM each time. Besides, the TGI in the assay with ACHN renal, with UACC-257 melanoma, with LOX IMVI melanoma, in the assay on A498 renal, with OVCAR-5 ovarian and in the assay with UO-31 renal was over 100 µM throughout. The TGI with HT29 colon and with HCT-15 colon was over 100 µM each time.
